Tests used:
Format in all cases: cell-based
TJ905 cells = experiment: CellTiter-Glo cell viability, TJ905; details: 72 h
Experimental: (§1) The cell viability of 50 cancer cell lines was studied after treatment with Compound 121. Inhibition concentration values at 50% (IC50) were determined using CellTiter-Glo luminescent cell viability assay after incubation with different compound concentrations. GI50 values were determined according to the examples described above. Each cell line was treated with Compound 121, a standard chemotherapy drug as a reference control, and culture medium as a vehicle control.
(§2) All cells were cultured in media supplemented with 10-15% FBS at 37° C. in the presence of 5% CO2 and at 95% humidity. The culture medium was purchased from GIBCO or Sigma, USA. Cisplatin was chosen as the reference control and purchased from Hospira Australia Pty Ltd. The cell lines studied are presented in Table 5.
(§3) Cells were harvested during a logarithmic growth period and cell number count was determined using Count-star. Cell concentrations were adjusted to 4.44×10^4 cells/mL with respective culture medium. 90 μL of cell suspensions were added to two 96-well plates (plates A and B) with a final cell density of 4×10^3 cells/well.
(§4) 10 μL of culture medium was added to each well of plate A for TO reading. The plate was allowed to equilibrate at room temperature for approximately 30 min. 50 μL of CellTiter-Glo was added to each well and the contents were mixed for 5 min on an orbital shaker to induce cell lysis. The plate was allowed to incubate at room temperature for 20 min to stabilize luminescent signal.
(§5) 10 μM Compound 121 in media was serially diluted 3.16-fold to achieve 9 dose levels. Similarly, 100 μM reference control in media was serially diluted 3.16-fold to prepare reference control solutions. 10 μL drug solution and 10 μL of reference control was dispensed into each well in plate B.
(§6) Test plate B was incubated for 72 h in a humidified incubator at 37° C. in the presence of 5% CO2 and then subjected to CTG assay. The plate was allowed to equilibrate at room temperature for about 30 min. 50 μL of CellTiter-Glo was added to each well and the contents were mixed for 5 min on an orbital shaker to induce cell lysis. The plate was allowed to incubate at room temperature for 20 min to stabilize luminescent signal.
(§7) IC50 and GI50 values for each of the 50 cell lines are presented in Table 6 and were calculated based on the dose-response curves depicted in FIGS. 1-50. The dose-response curves were fitted using nonlinear regression model with a sigmoidal dose response. The formula for calculating survival rate was calculated by the formula:
(§8) Survival rate (%)=(LumTest article−LumMedium control)/(LumNone treated−LumMedium control)×100.

HT-1080 cells = experiment: CellTiter-Glo cell viability, HT-1080; details: 72 h
Experimental: as §1, §2, §3, §4, §5, §6, §7, §8

SK-N-FI cells = experiment: CellTiter-Glo cell viability, SK-N-FI; details: 72 h
Experimental: as §1, §2, §3, §4, §5, §6, §7, §8

HuCCT1 cells = experiment: CellTiter-Glo cell viability, HuCCT1; details: 72 h
Experimental: as §1, §2, §3, §4, §5, §6, §7, §8

OVCAR-3 cells = experiment: CellTiter-Glo cell viability, OVCAR-3; details: 72 h
Experimental: as §1, §2, §3, §4, §5, §6, §7, §8

NCI-H226 cells = experiment: CellTiter-Glo cell viability, NCI-H226; details: 72 h
Experimental: as §1, §2, §3, §4, §5, §6, §7, §8

HCT-116 cells = experiment: CellTiter-Glo cell viability, HCT-116; details: 72 h
Experimental: as §1, §2, §3, §4, §5, §6, §7, §8

JHH-5 cells = experiment: CellTiter-Glo cell viability, JHH-5; details: 72 h
Experimental: as §1, §2, §3, §4, §5, §6, §7, §8

A-172 cells = experiment: CellTiter-Glo cell viability, A-172; details: 72 h
Experimental: as §1, §2, §3, §4, §5, §6, §7, §8

SK-OV-3 cells = experiment: CellTiter-Glo cell viability, SK-OV-3; details: 72 h
Experimental: as §1, §2, §3, §4, §5, §6, §7, §8

HUH-7 cells = experiment: CellTiter-Glo cell viability, HUH-7; details: 72 h
Experimental: as §1, §2, §3, §4, §5, §6, §7, §8

HT-29 cells = experiment: CellTiter-Glo cell viability, HT-29; details: 72 h
Experimental: as §1, §2, §3, §4, §5, §6, §7, §8

NCI-H1975 cells = experiment: CellTiter-Glo cell viability, NCI-H1975; details: 72 h
Experimental: as §1, §2, §3, §4, §5, §6, §7, §8

FaDu cells = experiment: CellTiter-Glo cell viability, FaDu; details: 72 h
Experimental: as §1, §2, §3, §4, §5, §6, §7, §8

786-O cells = experiment: CellTiter-Glo cell viability, 786-O; details: 72 h
Experimental: as §1, §2, §3, §4, §5, §6, §7, §8

BT474 cells = experiment: CellTiter-Glo cell viability, BT474; details: 72 h
Experimental: as §1, §2, §3, §4, §5, §6, §7, §8

NCI-H209 cells = experiment: CellTiter-Glo cell viability, NCI-H209; details: 72 h
Experimental: as §1, §2, §3, §4, §5, §6, §7, §8

AN3 CA cells = experiment: CellTiter-Glo cell viability, AN3 CA; details: 72 h
Experimental: as §1, §2, §3, §4, §5, §6, §7, §8

22Rv1 cells = experiment: CellTiter-Glo cell viability, 22Rv1; details: 72 h
Experimental: as §1, §2, §3, §4, §5, §6, §7, §8

A2058 cells = experiment: CellTiter-Glo cell viability, A2058; details: 72 h
Experimental: as §1, §2, §3, §4, §5, §6, §7, §8

SNU-5 cells = experiment: CellTiter-Glo cell viability, SNU-5; details: SN1J-5 cells, 72 h
Experimental: as §1, §2, §3, §4, §5, §6, §7, §8

[1] = top conc. 10 μM Compound 121, 100 μM cisplatin

With N.N.[Cl][Pt][Cl] [Cisplatin, reference compound] the GI50 (TJ905 cells; read-out: Absolute GI50) was 6.56 µM, the IC50 (TJ905 cells; read-out: Absolute IC50) was 9.85 µM and the “% inhibition at top conc.” value (TJ905 cells; [1]) was 80.57%. For the same molecule, the GI50 (HT-1080 cells; read-out: Absolute GI50) was 1.98 µM, the IC50 (HT-1080 cells; read-out: Absolute IC50) was 2.22 µM and the “% inhibition at top conc.” value (HT-1080 cells; [1]) was 99.59%. The GI50 (SK-N-FI cells; read-out: Absolute GI50) was 5.8 µM, the IC50 (SK-N-FI cells; read-out: Absolute IC50) was 9.26 µM and the “% inhibition at top conc.” value (SK-N-FI cells; [1]) was 99.77%. For the same molecule, the GI50 (HuCCT1 cells; read-out: Absolute GI50) was 6.59 µM, the IC50 (HuCCT1 cells; read-out: Absolute IC50) was 8.44 µM and the “% inhibition at top conc.” value (HuCCT1 cells; [1]) was 90.42%. For the same molecule, the GI50 (OVCAR-3 cells; read-out: Absolute GI50) was 3.81 µM, the IC50 (OVCAR-3 cells; read-out: Absolute IC50) was 4.29 µM and the “% inhibition at top conc.” value (OVCAR-3 cells; [1]) was 91.14%. For the same molecule, the GI50 (NCI-H226 cells; read-out: Absolute GI50) was 5.72 µM, the IC50 (NCI-H226 cells; read-out: Absolute IC50) was 7.36 µM and the “% inhibition at top conc.” value (NCI-H226 cells; [1]) was 94.81%. The GI50 (HCT-116 cells; read-out: Absolute GI50) was 4.14 µM, the IC50 (HCT-116 cells; read-out: Absolute IC50) was 4.35 µM and the “% inhibition at top conc.” value (HCT-116 cells; [1]) was 95.29%. The GI50 (JHH-5 cells; read-out: Absolute GI50) was 1.97 µM, the IC50 (JHH-5 cells; read-out: Absolute IC50) was 2.27 µM and the “% inhibition at top conc.” value (JHH-5 cells; [1]) was 87.18%. The GI50 (A-172 cells; read-out: Absolute GI50) was 15.9 µM, the IC50 (A-172 cells; read-out: Absolute IC50) was 20.3 µM and the “% inhibition at top conc.” value (A-172 cells; [1]) was 93.09%. The GI50 (SK-OV-3 cells; read-out: Absolute GI50) was 5.08 µM, the IC50 (SK-OV-3 cells; read-out: Absolute IC50) was 6.69 µM and the “% inhibition at top conc.” value (SK-OV-3 cells; [1]) was 81.79%. For the same molecule, the GI50 (HUH-7 cells; read-out: Absolute GI50) was 2.61 µM, the IC50 (HUH-7 cells; read-out: Absolute IC50) was 3.54 µM and the “% inhibition at top conc.” value (HUH-7 cells; [1]) was 93.92%. The GI50 (HT-29 cells; read-out: Absolute GI50) was 8.78 µM, the IC50 (HT-29 cells; read-out: Absolute IC50) was 9.8 µM and the “% inhibition at top conc.” value (HT-29 cells; [1]) was 89.05%. The GI50 (NCI-H1975 cells; read-out: Absolute GI50) was 5.52 µM, the IC50 (NCI-H1975 cells; read-out: Absolute IC50) was 6.93 µM and the “% inhibition at top conc.” value (NCI-H1975 cells; [1]) was 98.75%. The GI50 (FaDu cells; read-out: Absolute GI50) was 1.96 µM, the IC50 (FaDu cells; read-out: Absolute IC50) was 2.25 µM and the “% inhibition at top conc.” value (FaDu cells; [1]) was 98.16%. The GI50 (786-O cells; read-out: Absolute GI50) was 1.6 µM, the IC50 (786-O cells; read-out: Absolute IC50) was 1.77 µM and the “% inhibition at top conc.” value (786-O cells; [1]) was 98.46%. For the same molecule, the GI50 (BT474 cells; read-out: Absolute GI50) was 39.3 µM, the IC50 (BT474 cells; read-out: Absolute IC50) was 45.1 µM and the “% inhibition at top conc.” value (BT474 cells; [1]) was 59.96%. For the same molecule, the GI50 (NCI-H209 cells; read-out: Absolute GI50) was 0.14 µM, the IC50 (NCI-H209 cells; read-out: Absolute IC50) was 0.23 µM and the “% inhibition at top conc.” value (NCI-H209 cells; [1]) was 98.81%. For the same molecule, the GI50 (AN3 CA cells; read-out: Absolute GI50) was 3.68 µM, the IC50 (AN3 CA cells; read-out: Absolute IC50) was 4.38 µM and the “% inhibition at top conc.” value (AN3 CA cells; [1]) was 99.95%. For the same molecule, the GI50 (22Rv1 cells; read-out: Absolute GI50) was 1.88 µM, the IC50 (22Rv1 cells; read-out: Absolute IC50) was 3.07 µM and the “% inhibition at top conc.” value (22Rv1 cells; [1]) was 98.28%. The GI50 (A2058 cells; read-out: Absolute GI50) was 2.38 µM, the IC50 (A2058 cells; read-out: Absolute IC50) was 3.11 µM and the “% inhibition at top conc.” value (A2058 cells; [1]) was 99.85%. For the same molecule, the GI50 (SNU-5 cells; read-out: Absolute GI50) was 2.15 µM, the IC50 (SNU-5 cells; read-out: Absolute IC50) was 2.5 µM and the “% inhibition at top conc.” value (SNU-5 cells; [1]) was 97.80%.

From patent US20210196724A1, “BIARYL COMPOSITIONS AND METHODS FOR MODULATING A KINASE CASCADE” (Athenex, Inc., priority 2016, published 2021)
